Reference: the NIST ThermoML archive (doi:10.1021/je201051q)

Assay: xn = mol fraction of the nth substance listed
Conditions: isochoric method

C=C(F)C(F)(F)F [2,3,3,3-tetrafluoro-1-propene] + O=C=O
Conditions | molar volume [m3/mol]
223.07 K, 420.2 kPa, Fluid (supercritical or subcritical phases), x2 = 0.662 | 0.001227
223.08 K, 197.6 kPa, Fluid (supercritical or subcritical phases), x2 = 0.365 | 0.002253
223.28 K, 95.7 kPa, Fluid (supercritical or subcritical phases), x2 = 0.16 | 0.002938
223.62 K, 147.7 kPa, Fluid (supercritical or subcritical phases), x2 = 0.266 | 0.002569
223.63 K, 312 kPa, Fluid (supercritical or subcritical phases), x2 = 0.574 | 0.002153
224.2 K, 460.3 kPa, Fluid (supercritical or subcritical phases), x2 = 0.754 | 0.001747
224.91 K, 61.7 kPa, Fluid (supercritical or subcritical phases), x2 = 0.051 | 0.002894
225.14 K, 271.4 kPa, Fluid (supercritical or subcritical phases), x2 = 0.48 | 0.002063
232.92 K, 331.8 kPa, Fluid (supercritical or subcritical phases), x2 = 0.48 | 0.002063
232.97 K, 252.9 kPa, Fluid (supercritical or subcritical phases), x2 = 0.365 | 0.002254
232.97 K, 559 kPa, Fluid (supercritical or subcritical phases), x2 = 0.662 | 0.001227
233 K, 129.7 kPa, Fluid (supercritical or subcritical phases), x2 = 0.16 | 0.002939
233.01 K, 387.5 kPa, Fluid (supercritical or subcritical phases), x2 = 0.574 | 0.002154
233.06 K, 576 kPa, Fluid (supercritical or subcritical phases), x2 = 0.754 | 0.001747
233.09 K, 190.8 kPa, Fluid (supercritical or subcritical phases), x2 = 0.266 | 0.00257
233.25 K, 86.7 kPa, Fluid (supercritical or subcritical phases), x2 = 0.051 | 0.002895
242.68 K, 174.3 kPa, Fluid (supercritical or subcritical phases), x2 = 0.16 | 0.00294
242.84 K, 412.5 kPa, Fluid (supercritical or subcritical phases), x2 = 0.48 | 0.002064
242.95 K, 711.4 kPa, Fluid (supercritical or subcritical phases), x2 = 0.662 | 0.001228
242.99 K, 322.1 kPa, Fluid (supercritical or subcritical phases), x2 = 0.365 | 0.002255
243.03 K, 246 kPa, Fluid (supercritical or subcritical phases), x2 = 0.266 | 0.002571
243.04 K, 710.6 kPa, Fluid (supercritical or subcritical phases), x2 = 0.754 | 0.001748
243.07 K, 124.7 kPa, Fluid (supercritical or subcritical phases), x2 = 0.051 | 0.002896
243.08 K, 479.4 kPa, Fluid (supercritical or subcritical phases), x2 = 0.574 | 0.002155
252.69 K, 399.3 kPa, Fluid (supercritical or subcritical phases), x2 = 0.365 | 0.002256
252.82 K, 234.8 kPa, Fluid (supercritical or subcritical phases), x2 = 0.16 | 0.002942
252.82 K, 504.1 kPa, Fluid (supercritical or subcritical phases), x2 = 0.48 | 0.002065
252.9 K, 876.2 kPa, Fluid (supercritical or subcritical phases), x2 = 0.662 | 0.001228
252.95 K, 315.1 kPa, Fluid (supercritical or subcritical phases), x2 = 0.266 | 0.002572
252.97 K, 179 kPa, Fluid (supercritical or subcritical phases), x2 = 0.051 | 0.002897
253.03 K, 574.3 kPa, Fluid (supercritical or subcritical phases), x2 = 0.574 | 0.002156
253.04 K, 842.3 kPa, Fluid (supercritical or subcritical phases), x2 = 0.754 | 0.001749
262.58 K, 492.3 kPa, Fluid (supercritical or subcritical phases), x2 = 0.365 | 0.002257
262.8 K, 313 kPa, Fluid (supercritical or subcritical phases), x2 = 0.16 | 0.002943
262.86 K, 610.6 kPa, Fluid (supercritical or subcritical phases), x2 = 0.48 | 0.002066
262.94 K, 1044 kPa, Fluid (supercritical or subcritical phases), x2 = 0.662 | 0.001229
262.95 K, 401.7 kPa, Fluid (supercritical or subcritical phases), x2 = 0.266 | 0.002573
262.96 K, 686 kPa, Fluid (supercritical or subcritical phases), x2 = 0.574 | 0.002157
263.01 K, 980.1 kPa, Fluid (supercritical or subcritical phases), x2 = 0.754 | 0.00175
263.06 K, 253.3 kPa, Fluid (supercritical or subcritical phases), x2 = 0.051 | 0.002899
272.66 K, 609 kPa, Fluid (supercritical or subcritical phases), x2 = 0.365 | 0.002258
272.75 K, 412.9 kPa, Fluid (supercritical or subcritical phases), x2 = 0.16 | 0.002944
272.82 K, 813.7 kPa, Fluid (supercritical or subcritical phases), x2 = 0.574 | 0.002158
272.83 K, 1223.1 kPa, Fluid (supercritical or subcritical phases), x2 = 0.662 | 0.001229
272.84 K, 734.4 kPa, Fluid (supercritical or subcritical phases), x2 = 0.48 | 0.002067
272.93 K, 348.1 kPa, Fluid (supercritical or subcritical phases), x2 = 0.051 | 0.0029
272.93 K, 509.9 kPa, Fluid (supercritical or subcritical phases), x2 = 0.266 | 0.002574
272.98 K, 1122.7 kPa, Gas, x2 = 0.754 | 0.00175
282.56 K, 466.4 kPa, Fluid (supercritical or subcritical phases), x2 = 0.051 | 0.002901
282.57 K, 537.9 kPa, Fluid (supercritical or subcritical phases), x2 = 0.16 | 0.002945
282.62 K, 884.2 kPa, Fluid (supercritical or subcritical phases), x2 = 0.48 | 0.002068
282.63 K, 1179.9 kPa, Gas, x2 = 0.754 | 0.001751
282.64 K, 1417.7 kPa, Fluid (supercritical or subcritical phases), x2 = 0.662 | 0.00123
282.69 K, 751.6 kPa, Fluid (supercritical or subcritical phases), x2 = 0.365 | 0.002259
282.75 K, 641.4 kPa, Fluid (supercritical or subcritical phases), x2 = 0.266 | 0.002575
282.88 K, 940.5 kPa, Gas, x2 = 0.574 | 0.002159
292.47 K, 673.8 kPa, Gas, x2 = 0.16 | 0.002947
292.6 K, 1003.3 kPa, Gas, x2 = 0.48 | 0.002069
292.67 K, 1237.7 kPa, Gas, x2 = 0.754 | 0.001752
292.69 K, 1614 kPa, Gas, x2 = 0.662 | 0.001231
292.7 K, 623 kPa, Fluid (supercritical or subcritical phases), x2 = 0.051 | 0.002902
292.75 K, 804.6 kPa, Fluid (supercritical or subcritical phases), x2 = 0.266 | 0.002577
292.85 K, 906.8 kPa, Gas, x2 = 0.365 | 0.00226
292.91 K, 1004.6 kPa, Gas, x2 = 0.574 | 0.00216
